Cc1nc2n(c(=O)c1CCN1CCC(c3noc4cc(F)ccc34)CC1)CCCC2O (stereo not given)
solubility (mole fraction)
Conditions | 288.15 K | 293.15 K | 298.15 K | 303.15 K | 308.15 K | 313.15 K | 318.15 K | 323.15 K | 328.15 K
in 1,4-dioxane | 0.00042 | 0.000595 | 0.000832 | 0.00115 | 0.00159 | 0.00214 | 0.00292 | 0.00382 | 0.00495
in THF | 0.000399 | 0.00055 | 0.000757 | 0.00101 | 0.00134 | 0.00177 | 0.00232 | 0.00312 | 0.00391
in acetone | 6.42e-05 | 8.92e-05 | 0.000126 | 0.000171 | 0.000233 | 0.000314 | 0.000438 | 0.000556 | 0.000702
in acetonitrile | 2.45e-05 | 3.58e-05 | 5.16e-05 | 7.32e-05 | 0.000101 | 0.000143 | 0.000195 | 0.000263 | 0.00035
in ethanol | 6.58e-05 | 9.25e-05 | 0.000129 | 0.000178 | 0.000236 | 0.000338 | 0.00045 | 0.00059 | 0.00079
in ethyl acetate | 5.95e-05 | 8.43e-05 | 0.000118 | 0.000164 | 0.000225 | 0.000311 | 0.000415 | 0.00056 | 0.000742
in isopropanol | 2.65e-05 | 3.97e-05 | 5.8e-05 | 8.16e-05 | 0.00013 | 0.000179 | 0.000269 | 0.000363 | 0.000502
in methanol | 0.000103 | 0.000143 | 0.000192 | 0.00026 | 0.000347 | 0.000463 | 0.000618 | 0.000815 | 0.00105
in methyl acetate | 7.29e-05 | 0.000101 | 0.000141 | 0.000196 | 0.000266 | 0.000361 | 0.000503 | 0.000643 | 0.000814
in n-butanol | 8.99e-05 | 0.000128 | 0.000179 | 0.000249 | 0.000347 | 0.000443 | 0.000587 | 0.000829 | 0.00115
in n-butyl acetate | 5.19e-05 | 7.43e-05 | 0.000105 | 0.000147 | 0.000204 | 0.000282 | 0.000381 | 0.000514 | 0.000692
in n-hexanol | 7.11e-05 | 0.00012 | 0.000175 | 0.000244 | 0.000332 | 0.000465 | 0.000682 | 0.000958 | 0.00125
in n-pentanol | 9.07e-05 | 0.000129 | 0.000184 | 0.000258 | 0.000364 | 0.000553 | 0.000742 | 0.000963 | 0.00128
in n-propanol | 7.03e-05 | 0.000102 | 0.000133 | 0.000214 | 0.000298 | 0.000391 | 0.00056 | 0.000768 | 0.00107
in n-propyl acetate | 5.47e-05 | 7.82e-05 | 0.000111 | 0.000155 | 0.000214 | 0.000294 | 0.000398 | 0.000537 | 0.000728
